Assays:
Details in all cases: 48 h
[1] = system: NOMO1; test: cell viability relative to DMSO control; higher = less cytotoxic
In short: (§1)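 Library compounds in DMSO were pin-dosed into 1536-well plates (5 μl) holding NOMO1 or SEM (500 cells/well) or P12-Ichikawa (1000 cells/well) leukemia cells, across an 11-point threefold series of 47 μM to 0.79 nM. Each cell line had been adapted for at least four passages in each medium. CellTiter-Glo One luminescence was read after 48 h at 37°C. Viability is the per-plate percentage relative to DMSO wells, with cell-free wells as background.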

[2] = system: SEM cells; test: as above
In short: as §1

[3] = system: P12-Ichikawa; test: AUC of viability dose-response curve (% viability x log10 dose units); higher = less sensitive
In short: (§2)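 Leukemia cells adapted to each medium (500 or 1000 cells/well, 1536-well plates) were exposed to library compounds in DMSO for 48 h at 37°C at 11 threefold doses, 47 μM to 0.79 nM. Luminescence by CellTiter-Glo One was normalised per plate to DMSO and cell-free wells, then fitted with a four-parameter log-logistic curve on log10 dose. Curves above full viability were scaled and quality-control failures removed before area under the curve was integrated by trapezoidal rule.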

[4] = system: SEM cells; test: as above
In short: as §2

[5] = system: P12-Ichikawa; test: cell viability relative to DMSO control; higher = less cytotoxic
In short: as §1

[6] = system: NOMO1; test: AUC of viability dose-response curve (% viability x log10 dose units); higher = less sensitive
In short: as §2

Cc1ccccc1C(C(=O)NC1CCCC1)N(C(=O)Cn1cnc2ccccc21)c1cccc(F)c1 (stereo not given)
cell viability [%]
Details | HPLM + 10% dialyzed FBS | RPMI 5 mM glucose + 10% FBS | RPMI 5 mM glucose + 10% dialyzed FBS
[1], 0.000781 µM | – | 118 | –
[1], 0.00234 µM | – | 114 | –
[1], 0.00702 µM | – | 127 | –
[1], 0.0211 µM | – | 105 | –
[1], 0.0632 µM | – | 125 | –
[1], 0.19 µM | – | 107 | –
[1], 0.569 µM | – | 113 | –
[1], 1.71 µM | – | 121 | –
[1], 5.12 µM | – | 108 | –
[1], 15.4 µM | – | 110 | –
[1], 46.1 µM | – | 99.8 | –
[2], 0.000781 µM | 133 | 120 | 119
[2], 0.00234 µM | 114 | 126 | 107
[2], 0.00702 µM | 119 | 121 | 128
[2], 0.0211 µM | 113 | 128 | 125
[2], 0.0632 µM | 112 | 127 | 137
[2], 0.19 µM | 113 | 122 | 119
[2], 0.569 µM | 124 | 126 | 120
[2], 1.71 µM | 119 | 122 | 113
[2], 5.12 µM | 108 | 122 | 126
[2], 15.4 µM | 111 | 112 | 118
[2], 46.1 µM | 80.9 | 83 | 84.9

AUC of viability dose-response curve
Details | HPLM + 10% dialyzed FBS | RPMI 5 mM glucose + 10% FBS | RPMI 5 mM glucose + 10% dialyzed FBS
[3] | 446 | 439 | 446
[4] | 429 | 464 | 469

COc1cc([C@@H]2c3cc4c(cc3[C@@H](O[C@@H]3O[C@@H]5CO[C@@H](C)O[C@H]5[C@H](O)[C@H]3O)[C@H]3COC(=O)[C@H]23)OCO4)cc(OC)c1O
cell viability [%]
Details | [1] | [2] | [5]
HPLM + 10% dialyzed FBS, 0.000781 µM | 93.9 | 82.6 | 87.1
HPLM + 10% dialyzed FBS, 0.00234 µM | 98.1 | 71.6 | 89.5
HPLM + 10% dialyzed FBS, 0.00702 µM | 83.4 | 81.1 | 90.2
HPLM + 10% dialyzed FBS, 0.0211 µM | 103 | 74.9 | 80.9
HPLM + 10% dialyzed FBS, 0.0632 µM | 87.5 | 50.7 | 76.8
HPLM + 10% dialyzed FBS, 0.19 µM | 99.9 | 52.7 | 85.8
HPLM + 10% dialyzed FBS, 0.569 µM | 96.3 | 49.2 | 73.1
HPLM + 10% dialyzed FBS, 1.71 µM | 60.3 | 16.1 | 12.1
HPLM + 10% dialyzed FBS, 5.12 µM | 19.3 | 8.68 | 3.56
HPLM + 10% dialyzed FBS, 15.4 µM | 18.1 | 3.97 | 1.85
HPLM + 10% dialyzed FBS, 46.1 µM | 21.6 | 2.91 | 6.17
RPMI 5 mM glucose + 10% FBS, 0.000781 µM | 95.4 | 99.8 | 79.5
RPMI 5 mM glucose + 10% FBS, 0.00234 µM | 84.9 | 96.1 | 86.9
RPMI 5 mM glucose + 10% FBS, 0.00702 µM | 89.9 | 91.8 | 78.2
RPMI 5 mM glucose + 10% FBS, 0.0211 µM | 85.9 | 70.1 | 76
RPMI 5 mM glucose + 10% FBS, 0.0632 µM | 79.1 | 46.4 | 83.6
RPMI 5 mM glucose + 10% FBS, 0.19 µM | 81.1 | 59.6 | 67.6
RPMI 5 mM glucose + 10% FBS, 0.569 µM | 91.4 | 45.1 | 51.7
RPMI 5 mM glucose + 10% FBS, 1.71 µM | 63 | 10.9 | 6.56
RPMI 5 mM glucose + 10% FBS, 5.12 µM | 10.3 | 10.3 | 3.5
RPMI 5 mM glucose + 10% FBS, 15.4 µM | 11.7 | 3.77 | 3.55
RPMI 5 mM glucose + 10% FBS, 46.1 µM | 15.3 | 3.27 | 4.21
RPMI 5 mM glucose + 10% dialyzed FBS, 0.000781 µM | 84.7 | 70.3 | 73.4
RPMI 5 mM glucose + 10% dialyzed FBS, 0.00234 µM | 76.7 | 76 | 78.2
RPMI 5 mM glucose + 10% dialyzed FBS, 0.00702 µM | 80.7 | 76.1 | 84.7
RPMI 5 mM glucose + 10% dialyzed FBS, 0.0211 µM | 85.9 | 64.1 | 78.1
RPMI 5 mM glucose + 10% dialyzed FBS, 0.0632 µM | 81.7 | 37 | 78.7
RPMI 5 mM glucose + 10% dialyzed FBS, 0.19 µM | 82.1 | 35.8 | 74.1
RPMI 5 mM glucose + 10% dialyzed FBS, 0.569 µM | 87.9 | 34.8 | 63.9
RPMI 5 mM glucose + 10% dialyzed FBS, 1.71 µM | 73.7 | 8.52 | 8.76
RPMI 5 mM glucose + 10% dialyzed FBS, 5.12 µM | 15.6 | 5.58 | 4.69
RPMI 5 mM glucose + 10% dialyzed FBS, 15.4 µM | 13.1 | 3.22 | 3.79
RPMI 5 mM glucose + 10% dialyzed FBS, 46.1 µM | 18.9 | 2.28 | 4.42

AUC of viability dose-response curve
Details | HPLM + 10% dialyzed FBS | RPMI 5 mM glucose + 10% FBS | RPMI 5 mM glucose + 10% dialyzed FBS
[3] | 268 | 239 | 244
[6] | 345 | 314 | 311

— the supplement of paper PMC11451515
